Laboratory results taken from patent US20240246960A1 (adMare Therapeutics Society, priority 2021, published 2024).

These molecules were tested against T1, DNA-PK phosphorylation at Serine 2056 (Homo sapiens, UniProt P78527) (assay: Cellular Assay for Inhibition of DNA-PK Phosphorylation at Serine 2056 (FaDu cells, neocarzinostatin, sandwich ELISA)). Details: Table 3.
T1 construct: host or cells: FaDu
Assay type: cell-based
Method: FaDu cells were purchased from ATCC and maintained in MEM alpha medium (Life Technologies, cat. no. 12561) supplemented with 10% fetal bovine serum, and 1% GlutaMAX at 37° C. supplemented with 5% CO2. 50,000 cells were seeded to each well of a 96-well cell culture plate in 50 μL of culture medium and incubated for 16-24 hours. Three-fold serially diluted compounds were prepared in DMSO. Culture media was used to prepare compound treatments to 0.3% DMSO (dimethyl sulphoxide) content. Compound treatments were added to the cells for 1 hour prior incubation, followed by the addition of neocarzinostatin in fresh culture medium to 1 μg/mL final concentration for an additional 2 hours incubation to induce DNA DSBs (double-strand breaks). DMSO controls were incubated with fresh culture medium alone for the additional two hours incubation. The cells were then lysed and frozen at −20° C. Cell lysates were thawed on wet ice and protein concentrations quantified by BCA Protein Assay (Thermo # 23225). Lysis buffer was used to normalize lysates by protein content and all lysates were then investigated by sandwich ELISA by means of DNA-PK-specific antibodies (Abcam ab44815: total DNA-PK; ab124918: phosphoserine-2056 DNA-PK) in sandwich ELISA format on the MSD S600MM platform (MesoScale Discovery). % inhibition was calculated for all data points: =1−(DATA_PT−AVERAGE(DMSO controls))/(AVERAGE(NCS controls)−AVERAGE(DMSO controls)). Logarithm of the molar concentration of compound was plotted against percent inhibition to calculate IC50 values, with curve fit settings for data fit to log(inhibitor) vs. normalized response—Variable slope using curve fit software (GraphPad Prism).

IC50 [nM]	Structure (SMILES)
< 100	CNC(=O)c1ccnc(N[C@H]2CC[C@@H](Oc3nc(N4CCOCC4)cc4ncc(NS(C)(=O)=O)cc34)CC2)n1
100 to 1000	Cc1ccc(F)c(N[C@H]2CC[C@@H](Oc3nc(N4CCOCC4)cc4ncc(NS(C)(=O)=O)cc34)CC2)n1 [LFA1001, N-[5-[4-[(3-fluoro-6-methyl-2-pyridyl)amino]cyclohexoxy]-7-morpholino-1,6-naphthyridin-3-yl]methanesulfonamide]
< 100	CS(=O)(=O)Nc1cnc2cc(N3CCOCC3)nc(O[C@H]3CC[C@@H](Nc4cccnc4)CC3)c2c1 [LFA1002, N-[7-morpholino-5-[4-(3-pyridylamino)cyclohexoxy]-1,6-naphthyridin-3-yl]methanesulfonamide]
< 100	Cc1cccnc1N[C@H]1CC[C@@H](Oc2nc(N3CCOCC3)cc3ncc(NS(C)(=O)=O)cc23)CC1 [LFA1003, N-[5-[4-[(3-methyl-2-pyridyl)amino]cyclohexoxy]-7-morpholino-1,6-naphthyridin-3-yl]methanesulfonamide]
< 100	CS(=O)(=O)Nc1cnc2cc(N3CCOCC3)nc(O[C@H]3CC[C@@H](Nc4ccc(F)cn4)CC3)c2c1 [LFA1004, N-[5-[4-[(5-fluoro-2-pyridyl)amino]cyclohexoxy]-7-morpholino-1,6-naphthyridin-3-yl]methanesulfonamide]
< 100	COc1cccnc1N[C@H]1CC[C@@H](Oc2nc(N3CCOCC3)cc3ncc(NS(C)(=O)=O)cc23)CC1 [LFA1005, N-[5-[4-[(3-methoxy-2-pyridyl)amino]cyclohexoxy]-7-morpholino-1,6-naphthyridin-3-yl]methanesulfonamide]
< 100	Cc1cccc(N[C@H]2CC[C@@H](Oc3nc(N4CCOCC4)cc4ncc(NS(C)(=O)=O)cc34)CC2)n1 [LFA1006, N-[5-[4-[(6-methyl-2-pyridyl)amino]cyclohexoxy]-7-morpholino-1,6-naphthyridin-3-yl]methanesulfonamide]
< 100	CS(=O)(=O)Nc1cnc2cc(N3CCOCC3)nc(O[C@H]3CC[C@@H](Nc4ncccc4F)CC3)c2c1 [LFA1007, N-[5-[4-[(3-fluoro-2-pyridyl)amino]cyclohexoxy]-7-morpholino-1,6-naphthyridin-3-yl]methanesulfonamide]
< 100	CS(=O)(=O)Nc1cnc2cc(N3CCOCC3)nc(O[C@H]3CC[C@@H](Nc4ncccc4C#N)CC3)c2c1 [LFA1008, N-[5-[4-[(3-cyano-2-pyridyl)amino]cyclohexoxy]-7-morpholino-1,6-naphthyridin-3-yl]methanesulfonamide]
< 100	Cc1cnc(N[C@H]2CC[C@@H](Oc3nc(N4CCOCC4)cc4ncc(NS(C)(=O)=O)cc34)CC2)c(C)c1 [LFA1009, N-[5-[4-[(3,5-dimethyl-2-pyridyl)amino]cyclohexoxy]-7-morpholino-1,6-naphthyridin-3-yl]methanesulfonamide]
100 to 1000	COc1ccc(C)nc1N[C@H]1CC[C@@H](Oc2nc(N3CCOCC3)cc3ncc(NS(C)(=O)=O)cc23)CC1 [LFA1010, N-[5-[4-[(3-methoxy-6-methyl-2-pyridyl)amino]cyclohexoxy]-7-morpholino-1,6-naphthyridin-3-yl]methanesulfonamide]
< 100	Cc1cnc(N[C@H]2CC[C@@H](Oc3nc(N4CCOCC4)cc4ncc(NS(C)(=O)=O)cc34)CC2)c(F)c1 [LFA1011, N-[5-[4-[(3-fluoro-5-methyl-2-pyridyl)amino]cyclohexoxy]-7-morpholino-1,6-naphthyridin-3-yl]methanesulfonamide]
< 100	Cc1ccncc1N[C@H]1CC[C@@H](Oc2nc(N3CCOCC3)cc3ncc(NS(C)(=O)=O)cc23)CC1 [LFA1012]
100 to 1000	COc1cncc(N[C@H]2CC[C@@H](Oc3nc(N4CCOCC4)cc4ncc(NS(C)(=O)=O)cc34)CC2)c1 [LFA1013, N-[5-[4-[(5-methoxy-3-pyridyl)amino]cyclohexoxy]-7-morpholino-1,6-naphthyridin-3-yl]methanesulfonamide]
< 100	CS(=O)(=O)Nc1cnc2cc(N3CCOCC3)nc(O[C@H]3CC[C@@H](Nc4ccncc4Br)CC3)c2c1 [LFA1014, N-[5-[4-[(3-bromo-4-pyridyl)amino]cyclohexoxy]-7-morpholino-1,6-naphthyridin-3-yl]methanesulfonamide]
< 100	Cc1ncccc1N[C@H]1CC[C@@H](Oc2nc(N3CCOCC3)cc3ncc(NS(C)(=O)=O)cc23)CC1 [LFA1015, N-[5-[4-[(2-methyl-3-pyridyl)amino]cyclohexoxy]-7-morpholino-1,6-naphthyridin-3-yl]methanesulfonamide]

IC50 [nM]	Structure (SMILES)
< 100	COc1ccncc1N[C@H]1CC[C@@H](Oc2nc(N3CCOCC3)cc3ncc(NS(C)(=O)=O)cc23)CC1 [LFA1016, N-[5-[4-[(4-methoxy-3-pyridyl)amino]cyclohexoxy]-7-morpholino-1,6-naphthyridin-3-yl]methanesulfonamide]
100 to 1000	Cc1ccc(N[C@H]2CC[C@@H](Oc3nc(N4CCOCC4)cc4ncc(NS(C)(=O)=O)cc34)CC2)cn1 [LFA1017, N-[5-[4-[(6-methyl-3-pyridyl)amino]cyclohexoxy]-7-morpholino-1,6-naphthyridin-3-yl]methanesulfonamide]
< 100	Cc1nc(N[C@H]2CC[C@@H](Oc3nc(N4CCOCC4)cc4ncc(NS(C)(=O)=O)cc34)CC2)ccc1F [LFA1018, N-[5-[4-[(5-fluoro-6-methyl-2-pyridyl)amino]cyclohexoxy]-7-morpholino-1,6-naphthyridin-3-yl]methanesulfonamide]
< 100	Cc1ccc(N[C@H]2CC[C@@H](Oc3nc(N4CCOCC4)cc4ncc(NS(C)(=O)=O)cc34)CC2)nc1 [LFA1019, N-[5-[4-[(5-methyl-2-pyridyl)amino]cyclohexoxy]-7-morpholino-1,6-naphthyridin-3-yl]methanesulfonamide]
< 100	CS(=O)(=O)Nc1cnc2cc(N3CCOCC3)nc(O[C@H]3CC[C@@H](Nc4cccnn4)CC3)c2c1 [LFA1020, N-[7-morpholino-5-[4-(pyridazin-3-ylamino)cyclohexoxy]-1,6-naphthyridin-3-yl]methanesulfonamide]
< 100	CS(=O)(=O)Nc1cnc2cc(N3CCOCC3)nc(O[C@H]3CC[C@@H](Nc4ccc(C(F)(F)F)cn4)CC3)c2c1 [LFA1021, N-[7-morpholino-5-[4-[[5-(trifluoromethyl)-2-pyridyl]amino]cyclohexoxy]-1,6-naphthyridin-3-yl]methanesulfonamide]
< 100	CS(=O)(=O)Nc1cnc2cc(N3CCOCC3)nc(O[C@H]3CC[C@@H](Nc4ccc(C#N)cn4)CC3)c2c1 [LFA1022, N-[5-[4-[(5-cyano-2-pyridyl)amino]cyclohexoxy]-7-morpholino-1,6-naphthyridin-3-yl]methanesulfonamide]
< 100	CS(=O)(=O)Nc1cnc2cc(N3CCOCC3)nc(O[C@H]3CC[C@@H](Nc4ccc(C#N)nn4)CC3)c2c1 [LFA1023, N-[5-[4-[(6-cyanopyridazin-3-yl)amino]cyclohexoxy]-7-morpholino-1,6-naphthyridin-3-yl]methanesulfonamide]
< 100	CS(=O)(=O)Nc1cnc2cc(N3CCOCC3)nc(O[C@H]3CC[C@@H](Nc4ncc(F)cc4F)CC3)c2c1 [LFA1024, N-[5-[4-[(3,5-difluoro-2-pyridyl)amino]cyclohexoxy]-7-morpholino-1,6-naphthyridin-3-yl]methanesulfonamide]
< 100	COc1cc(C#N)cnc1N[C@H]1CC[C@@H](Oc2nc(N3CCOCC3)cc3ncc(NS(C)(=O)=O)cc23)CC1 [LFA1025, N-[5-[4-[(5-cyano-3-methoxy-2-pyridyl)amino]cyclohexoxy]-7-morpholino-1,6-naphthyridin-3-yl]methanesulfonamide]
100 to 1000	N#Cc1cnc(N[C@H]2CC[C@@H](Oc3nc(N4CCOCC4)cc4ncc(O)cc34)CC2)cn1 [LFA1026, 5-[[4-[(3-hydroxy-7-morpholino-1,6-naphthyridin-5-yl)oxy]cyclohexyl]amino]pyrazine-2-carbonitrile]
< 100	COc1cnc(N[C@H]2CC[C@@H](Oc3nc(N4CCOCC4)cc4ncc(NS(C)(=O)=O)cc34)CC2)cn1 [LFA1028, N-[5-[4-[(5-methoxypyrazin-2-yl)amino]cyclohexoxy]-7-morpholino-1,6-naphthyridin-3-yl]methanesulfonamide]
< 100	CS(=O)(=O)Nc1cnc2cc(N3CCOCC3)nc(O[C@H]3CC[C@@H](Nc4nccnc4C(F)(F)F)CC3)c2c1 [LFA1029, N-[7-morpholino-5-[4-[[3-(trifluoromethyl)pyrazin-2-yl]amino]cyclohexoxy]-1,6-naphthyridin-3-yl]methanesulfonamide]
100 to 1000	CS(=O)(=O)Nc1cnc2cc(N3CCOCC3)nc(O[C@H]3CC[C@@H](Nc4cncc(C(F)(F)F)n4)CC3)c2c1 [LFA1030, N-[7-morpholino-5-[4-[[6-(trifluoromethyl)pyrazin-2-yl]amino]cyclohexoxy]-1,6-naphthyridin-3-yl]methanesulfonamide]
< 100	CS(=O)(=O)Nc1cnc2cc(N3CCOCC3)nc(O[C@H]3CC[C@@H](Nc4cncc(C#N)n4)CC3)c2c1 [LFA1031, N-[5-[4-[(6-cyanopyrazin-2-yl)amino]cyclohexoxy]-7-morpholino-1,6-naphthyridin-3-yl]methanesulfonamide]
